Test results taken from US8309586B2, “Glucokinase activators and pharmaceutical compositions containing the same as an active ingredient” (LG Life Sciences Ltd., priority 2007, dated 2012).

Tested on: Glucokinase known as hexokinase IV (human GK isoform 1, pancreas form and human GK isoform 2, liver form)
Assay: Glucokinase enzymatic activity assay (G6PDH-coupled, NADH absorbance at 340 nm)
Assay type: biochemical
Conditions: 5 mM glucose, 1 mM ATP, 37 nM GK, 10 min at room temperature
Description: Glucokinase known as hexokinase IV (human GK isoform 1, pancreas form and human GK isoform 2, liver form) was cloned into an expression vector pET15 fx (Novagen Co.), transformed to E. coli BL21 (DE3) (Invitrogen Co.) strain, expressed, and purified using a nickel column. Then, the glucokinase obtained from dialysis was used in the following assay.
Glucokinase assay was performed by measuring absorbance according to the conventional manner. Briefly speaking, glucokinase converts the substrate glucose to glucose-6-phosphate under certain conditions, and glucose-6-phosphate dehydrogenase irreversibly converts glucose-6-phosphate to gluconate-6-phosphate. During this procedure, NADH is formed, and its absorbance is measured to calculate the enzymatic activity.
In the measurement of the enzymatic activity, each compound was diluted by two-fold from the maximum to the minimum concentrations, and 2 μl of each solution was added to 96 well UV plate (BD bioscience). 60 μl of the first mixture (final concentrations 25 mM Hepes, 25 mM KCl, 2 mM MgCl2, 1 mM DTT) was added, and thoroughly mixed. 38 μl of the enzyme mixture (final concentrations 1 mM ATP, 1 mM NAD, 5 mM glucose, 0.85U G6PDH, 37 nM GK) was added (final volume 100 μl), and the mixture was reacted for 10 min at room temperature. The absorbance of NADH was measured at 340 nm using a UV spectrometer (Molecular Device).
The enzyme activating abilities of the compounds according to the present invention are represented as AC1.5 (the compound concentration at which the enzymatic activity is increased by 1.5 times, nM), which is in the range of 0.001 uM to 30 uM or less, preferably 0.001 uM to 10 uM, more preferably 0.001 uM to 1 uM.

Structure (SMILES)	AC1.5 (the compound concentration at which the enzymatic activity is increased by 1.5 times) [nM]
Cc1ncn(CC[C@@H]2CSC(c3cc4cc(Cl)cc(NC5CCCC5)c4[nH]3)=N2)c1C(=O)O [Example 110, 3-{2-[(R)-2-(5-chloro-7-cyclopentylamino-1H-indol-2-yl)-4,5-dihydro-thiazol-4-yl]-ethyl}-5-methyl-3H-imidazole-4-carboxylic acid]	30
OC[C@@H]1CSC(c2cc3cc(F)cc(NC4CCCC4)c3[nH]2)=N1 [Example 5, [(R)-2-(7-cyclopentylamino-5-fluoro-1H-indol-2-yl)-4,5-dihydro-thiazol-4-yl]-methanol]	7
O=C(C[C@@H]1CSC(c2cc3cccc(NC4CCCC4)c3[nH]2)=N1)N1CCOCC1 [Example 91, 2-[(R)-2-(7-cyclopentylamino-1H-indol-2-yl)-4,5-dihydro-thiazol-4-yl]-1-morpholin-4-yl-ethanone]	72
O=C(C[C@@H]1CSC(c2cc3cccc(NC4CCOCC4)c3[nH]2)=N1)N1CCOCC1 [Example 93, 1-morpholin-4-yl-2-{(R)-2-[7-(tetrahydro-pyran-4-ylamino)-1H-indol-2-yl]-4,5-dihydro-thiazol-4-yl}-ethanone]	239
CCNC(=O)C[C@@H]1CSC(c2cc3cccc(NC4CCCC4)c3[nH]2)=N1 [Example 89, 2-[(R)-2-(7-cyclopentylamino-1H-indol-2-yl)-4,5-dihydro-thiazol-4-yl]-N-ethyl-acetamide]	32
OC[C@@H]1CSC(c2cc3cc(Oc4cccnc4)cc(NC4CCOCC4)c3[nH]2)=N1 [Example 14, {(R)-2-[5-(pyridin-3-yloxy)-7-(tetrahydro-pyran-4-ylamino)-1H-indol-2-yl]-4,5-dihydro-thiazol-4-yl}-methanol]	8
OCC[C@@H]1CSC(c2cc3cc(Br)cc(NC4CCCC4)c3[nH]2)=N1 [Example 34, 2-[(R)-2-(5-bromo-7-cyclopentylamino-1H-indol-2-yl)-4,5-dihydro-1,3-thiazol-4-yl]-ethanol]	11
O=C1CCCN1CC[C@@H]1CSC(c2cc3cc(Cl)cc(NC4CCCC4)c3[nH]2)=N1 [Example 111, 1-{2-[(R)-2-(5-chloro-7-cyclopentylamino-1H-indol-2-yl)-4,5-dihydro-thiazol-4-yl]-ethyl}-pyrrolidin-2-one]	11
CS(=O)(=O)CC[C@@H]1CSC(c2cc3cc(F)cc(NC4CCCC4)c3[nH]2)=N1 [Example 132, cyclopentyl-{5-fluoro-2-[(R)-4-(2-methanesulfonyl-ethyl)-4,5-dihydro-thiazol-2-yl]-1H-indol-7-yl}-amine]	13
O=C(C[C@@H]1CSC(c2cc3cc(Cl)cc(NC4CCCC4)c3[nH]2)=N1)N1CCC(O)C1 (stereo partly drawn) [Example 80, 2-[(R)-2-(5-chloro-7-cyclopentylamino-1H-indol-2-yl)-4,5-dihydro-thiazol-4-yl]-1-(3-hydroxy-pyrrolidin-1-yl)-ethanone]	21
OCC[C@@H]1CSC(c2cc3cc(F)cc(NC4CCCC4)c3[nH]2)=N1 [Example 39, 2-[(R)-2-(7-cyclopentylamino-5-fluoro-1H-indol-2-yl)-4,5-dihydro-thiazol-4-yl]-ethanol]	6
O=C1CN(CC[C@@H]2CSC(c3cc4cc(F)cc(NC5CCOCC5)c4[nH]3)=N2)CCN1 [Example 139, 4-(2-{(R)-2-[5-fluoro-7-(tetrahydro-pyran-4-ylamino)-1H-indol-2-yl]-4,5-dihydro-thiazol-4-yl}-ethyl)-piperazin-2-one]	38
O=C(O)C[C@@H]1CSC(c2cc3cc(Br)cc(NC4CCOCC4)c3[nH]2)=N1 [Example 35, {(R)-2-[5-bromo-7-(tetrahydro-pyran-4-ylamino)-1H-indol-2-yl]-4,5-dihydro-thiazol-4-yl}-acetic acid]	6
Clc1cc(NC2CCOCC2)c2[nH]c(C3=N[C@H](CCN4CCN(c5cnccn5)CC4)CS3)cc2c1 [Example 122, (5-chloro-2-{(R)-4-[2-(2,3,5,6-tetrahydro-[1,2′]bipyrazinyl-4-yl)-ethyl]-4,5-dihydro-thiazol-2-yl}-1H-indol-7-yl)-(tetrahydropyran-4-yl)-amine]	60
COc1cc(NC2CCCC2)c2[nH]c(C3=N[C@H](CCN4CCN(C(=O)CO)CC4)CS3)cc2c1 [Example 146, 1-(4-{2-[(R)-2-(7-cyclopentylamino-5-methoxy-1H-indol-2-yl)-4,5-dihydro-thiazol-4-yl]-ethyl}-piperazin-1-yl)-2-hydroxy-ethanone]	29
c1cc(NC2CCCC2)c2[nH]c(C3=N[C@H](CN4CCOCC4)CS3)cc2c1 [Example 16, cyclopentyl-[2-((R)-4-morpholin-4-ylmethyl-4,5-dihydro-thiazol-2-yl)-1H-indol-7-yl]-amine]	64
O=C(C[C@@H]1CSC(c2cc3cc(Cl)cc(NC4CCCC4)c3[nH]2)=N1)N1CCCCC1 [Example 81, 2-[(R)-2-(5-chloro-7-cyclopentylamino-1H-indol-2-yl)-4,5-dihydro-thiazol-4-yl]-1-piperidin-1-yl-ethanone]	6
CC(=O)N1CCN(CCC[C@@H]2CSC(c3cc4cc(Cl)cc(NC5CCCC5)c4[nH]3)=N2)CC1 [Example 155, 1-(4-{3-[(R)-2-(5-chloro-7-cyclopentylamino-1H-indol-2-yl)-4,5-dihydro-thiazol-4-yl]-propyl}-piperazin-1-yl)-ethanone]	12
CNC(=O)C[C@@H]1CSC(c2cc3cc(Cl)cc(NC4CCOCC4)c3[nH]2)=N1 [Example 82, 2-{(R)-2-[5-chloro-7-(tetrahydro-pyran-4-ylamino)-1H-indol-2-yl]-4,5-dihydro-thiazol-4-yl}-N-methyl-acetamide]	22
O=C(O)C[C@@H]1CSC(c2cc3cc(Oc4cccnc4)cc(NC4CCOCC4)c3[nH]2)=N1 [Example 59, {(R)-2-[5-(pyridin-3-yloxy)-7-(tetrahydro-pyran-4-ylamino)-1H-indol-2-yl]-4,5-dihydro-thiazol-4-yl}-acetic acid]	28
CCOC(=O)c1c(C)ncn1CC[C@@H]1CSC(c2cc3cc(Cl)cc(NC4CCCC4)c3[nH]2)=N1 [Example 109, 3-{2-[(R)-2-(5-chloro-7-cyclopentylamino-1H-indol-2-yl)-4,5-dihydro-thiazol-4-yl]-ethyl}-5-methyl-3H-imidazole-4-carboxylic acid ethyl ester]	26
O=C(O)CC[C@@H]1CSC(c2cc3cc(OC(F)(F)F)cc(NC4CCCC4)c3[nH]2)=N1 [Example 169, 3-[(R)-2-(7-cyclopentylamino-5-trifluoromethoxy-1H-indol-2-yl)-4,5-dihydro-thiazol-4-yl]-propionic acid]	9
O=C(C[C@@H]1CSC(c2cc3cc(Cl)cc(NC4CCOCC4)c3[nH]2)=N1)N1CCOCC1 [Example 83, 2-{(R)-2-[5-chloro-7-(tetrahydro-pyran-4-ylamino)-1H-indol-2-yl]-4,5-dihydro-thiazol-4-yl}-1-morpholin-4-yl-ethanone]	45
CNC(=O)C[C@@H]1CSC(c2cc3cc(Cl)cc(NC4CCCC4)c3[nH]2)=N1 [Example 76, 2-[(R)-2-(5-chloro-7-cyclopentylamino-1H-indol-2-yl)-4,5-dihydro-thiazol-4-yl]-N-methyl-acetamide]	14
O=C(O)C[C@@H]1CSC(c2cc3cc(Oc4cccnc4)cc(NC4CCCC4)c3[nH]2)=N1 [Example 57, {(R)-2-[7-cyclopentylamino-5-(pyridin-3-yloxy)-1H-indol-2-yl]-4,5-dihydro-thiazol-4-yl}-acetic acid]	21
CNC(=O)C[C@@H]1CSC(c2cc3cc(OC)cc(NC4CCCC4)c3[nH]2)=N1 [Example 87, 2-[(R)-2-(7-cyclopentylamino-5-methoxy-1H-indol-2-yl)-4,5-dihydro-thiazol-4-yl]-N-methyl-acetamide]	10
CNC(=O)C[C@@H]1CSC(c2cc3cccc(NC4CCCC4)c3[nH]2)=N1 [Example 90, 2-[(R)-2-(7-cyclopentylamino-1H-indol-2-yl)-4,5-dihydro-thiazol-4-yl]-N-methyl-acetamide]	37
